In patent US20150133369A1, “PHARMACOKINETIC MODULATION WITH ALISPORIVIR” (priority 2012, published 2015):
Like-named read-outs stand apart in the source and are kept apart here. One block for each molecule: values may come before it.

How the values were obtained:
[1] = clinical drug-drug interaction study: effect of alisporivir on buspirone (sensitive CYP3A4 substrate) pharmacokinetics; conditions: alisporivir 600 mg BID for 7 days; single oral 5 mg dose of buspirone
UGT2B7 = target: T1, UGT2B7 (Homo sapiens, UniProt P16662)
T1 sequence (P16662 24-529): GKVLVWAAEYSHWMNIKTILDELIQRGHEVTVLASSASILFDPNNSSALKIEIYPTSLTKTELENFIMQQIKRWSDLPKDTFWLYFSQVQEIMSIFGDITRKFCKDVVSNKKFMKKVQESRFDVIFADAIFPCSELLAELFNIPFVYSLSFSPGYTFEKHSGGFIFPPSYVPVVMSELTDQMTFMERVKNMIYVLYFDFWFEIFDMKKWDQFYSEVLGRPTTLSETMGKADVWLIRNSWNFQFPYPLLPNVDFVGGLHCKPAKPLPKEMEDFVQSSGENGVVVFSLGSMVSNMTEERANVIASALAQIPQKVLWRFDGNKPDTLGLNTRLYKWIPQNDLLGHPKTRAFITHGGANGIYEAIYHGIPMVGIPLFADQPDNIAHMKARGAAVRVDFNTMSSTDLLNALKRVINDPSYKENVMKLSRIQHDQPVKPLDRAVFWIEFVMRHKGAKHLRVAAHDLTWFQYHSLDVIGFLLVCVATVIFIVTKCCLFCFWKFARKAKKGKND

OATP1B1 [2] = target: T2, OATP1B1 (Homo sapiens, UniProt Q9Y6L6)
T2 sequence (Q9Y6L6 1-691): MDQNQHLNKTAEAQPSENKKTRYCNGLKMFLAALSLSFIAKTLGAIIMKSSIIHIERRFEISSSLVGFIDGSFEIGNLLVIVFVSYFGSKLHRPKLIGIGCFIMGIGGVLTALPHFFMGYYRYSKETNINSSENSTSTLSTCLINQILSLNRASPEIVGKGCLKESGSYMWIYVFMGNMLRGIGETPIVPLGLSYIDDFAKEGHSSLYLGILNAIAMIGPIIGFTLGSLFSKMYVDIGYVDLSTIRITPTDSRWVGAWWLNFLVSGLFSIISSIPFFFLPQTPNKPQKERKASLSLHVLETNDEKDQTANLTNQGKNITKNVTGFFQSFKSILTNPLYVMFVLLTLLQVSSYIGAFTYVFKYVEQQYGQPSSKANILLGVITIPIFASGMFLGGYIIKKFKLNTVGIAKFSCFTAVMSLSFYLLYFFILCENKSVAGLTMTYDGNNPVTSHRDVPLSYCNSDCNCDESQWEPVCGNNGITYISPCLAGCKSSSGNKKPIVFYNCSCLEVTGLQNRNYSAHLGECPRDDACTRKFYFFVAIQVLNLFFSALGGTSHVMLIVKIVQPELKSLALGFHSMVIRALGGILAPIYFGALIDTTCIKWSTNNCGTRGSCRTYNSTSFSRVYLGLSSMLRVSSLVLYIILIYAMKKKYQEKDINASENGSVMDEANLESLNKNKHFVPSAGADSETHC

OATP1B3 [3] = target: T3, OATP1B3 (Homo sapiens, UniProt Q9NPD5)
T3 sequence (Q9NPD5 1-702): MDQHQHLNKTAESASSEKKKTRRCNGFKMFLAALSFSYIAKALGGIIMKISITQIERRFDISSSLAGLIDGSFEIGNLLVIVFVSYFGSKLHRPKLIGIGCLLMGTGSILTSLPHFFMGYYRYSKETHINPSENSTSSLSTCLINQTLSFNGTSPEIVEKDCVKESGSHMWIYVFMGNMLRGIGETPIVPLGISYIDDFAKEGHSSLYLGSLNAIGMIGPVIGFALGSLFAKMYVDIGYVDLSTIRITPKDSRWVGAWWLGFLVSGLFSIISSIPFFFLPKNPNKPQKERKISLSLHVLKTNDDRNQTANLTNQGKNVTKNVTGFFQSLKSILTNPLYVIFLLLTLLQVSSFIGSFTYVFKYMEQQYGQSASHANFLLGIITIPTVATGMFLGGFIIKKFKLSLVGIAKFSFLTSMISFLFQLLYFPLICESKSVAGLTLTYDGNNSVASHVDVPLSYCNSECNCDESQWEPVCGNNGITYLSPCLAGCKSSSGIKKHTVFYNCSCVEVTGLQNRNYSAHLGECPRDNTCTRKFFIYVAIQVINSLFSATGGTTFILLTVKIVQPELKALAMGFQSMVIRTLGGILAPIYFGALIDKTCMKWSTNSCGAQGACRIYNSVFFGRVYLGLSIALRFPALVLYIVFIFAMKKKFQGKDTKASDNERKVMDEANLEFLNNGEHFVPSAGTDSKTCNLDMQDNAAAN

OATP1B3 [4] = target: T3, OATP1B3; remark: listed apart in the source
OATP1B1 [5] = target: T2, OATP1B1; remark: listed apart in the source
P-gp = P-gp (Homo sapiens, UniProt P08183); conditions: not told
[6] = human, in vivo, po
UGT1A1 = target: T4, UGT1A1 (Homo sapiens, UniProt P22309)
T4 sequence (P22309 26-533): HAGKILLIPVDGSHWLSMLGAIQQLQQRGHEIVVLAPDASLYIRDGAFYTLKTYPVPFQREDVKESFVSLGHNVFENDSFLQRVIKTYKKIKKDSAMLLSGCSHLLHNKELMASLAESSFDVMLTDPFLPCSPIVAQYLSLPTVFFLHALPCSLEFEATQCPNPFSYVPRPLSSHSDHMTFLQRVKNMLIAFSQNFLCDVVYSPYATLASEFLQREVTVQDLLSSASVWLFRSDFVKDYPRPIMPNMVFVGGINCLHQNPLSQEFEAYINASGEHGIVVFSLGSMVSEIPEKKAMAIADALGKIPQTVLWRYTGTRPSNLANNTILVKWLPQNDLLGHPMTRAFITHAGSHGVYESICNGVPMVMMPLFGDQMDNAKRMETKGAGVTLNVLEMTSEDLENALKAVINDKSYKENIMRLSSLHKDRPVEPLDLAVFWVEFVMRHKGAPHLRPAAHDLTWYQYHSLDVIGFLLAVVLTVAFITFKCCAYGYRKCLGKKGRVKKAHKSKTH

BSEP = BSEP (Homo sapiens, UniProt O95342)
MRP2 [7] = target: T5, MRP2 (Homo sapiens, UniProt Q92887)
MRP2 [8] = target: T5, MRP2; conditions: not told
NTCP = target: T6, NTCP (Homo sapiens, UniProt Q14973)
T6 sequence (Q14973 1-349): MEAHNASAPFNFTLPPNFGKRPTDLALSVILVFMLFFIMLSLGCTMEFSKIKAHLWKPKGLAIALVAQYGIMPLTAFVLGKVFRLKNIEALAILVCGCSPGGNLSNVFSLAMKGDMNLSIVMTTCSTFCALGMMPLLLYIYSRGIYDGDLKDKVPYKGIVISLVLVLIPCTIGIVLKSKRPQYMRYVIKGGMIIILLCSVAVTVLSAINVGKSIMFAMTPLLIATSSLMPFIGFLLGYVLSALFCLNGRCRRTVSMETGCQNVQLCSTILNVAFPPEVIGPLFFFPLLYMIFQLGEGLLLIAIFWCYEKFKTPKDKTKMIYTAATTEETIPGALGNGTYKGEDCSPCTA

HIV-1 = conditions: in vitro; more potent than CsA; cited from earlier work
CYP3A4 = CYP3A4 (Homo sapiens, UniProt P08684)
[9] = human, in vivo, po; remark: listed apart in the source
[10] = clinical drug-drug interaction study: effect of alisporivir on azithromycin (CYP3A4 substrate) pharmacokinetics; type: in vivo, human; conditions: single 1200 mg oral dose of alisporivir; single oral 1000 mg dose of azithromycin
[11] = clinical drug-drug interaction study: effect of alisporivir on boceprevir (CYP3A4 and P-gp substrate) pharmacokinetics; type: in vivo; conditions: healthy human subjects; alisporivir 600 mg BID for 7 days and 600 mg QD for one additional day; single 400 mg oral dose of boceprevir
Experimental: The T1/2 of boceprevir was similar when boceprevir was administered with alisporivir.

[12] = clinical drug-drug interaction study: effect of alisporivir on digoxin (P-gp substrate) pharmacokinetics; type: in vivo, human; conditions: alisporivir 600 mg BID for 7 days; single oral 0.25 mg dose of digoxin
Experimental: Digoxin 0.25 mg is generally initiated in patients under the age of 70 with good renal function. When digoxin is taken with food high in bran fiber, the amount absorbed from an oral dose may be reduced.

[13] = human, in vivo, po; remark: listed apart in the source
[14] = human, in vivo, po; remark: listed apart in the source
[15] = alisporivir 600 mg BID for 10 days; single 40 mg oral dose of atorvastatin
[16] = clinical drug-drug interaction study: effect of alisporivir on telaprevir (CYP3A4 and P-gp substrate) pharmacokinetics; type: in vivo; conditions: healthy human subjects; alisporivir 600 mg BID for 7 day and 600 mg QD for one additional day; single 375 mg oral dose of telaprevir
Experimental: The T1/2 of telaprevir was longer when telaprevir was administered with alisporivir.

[17] = clinical drug-drug interaction study: effect of alisporivir on valsartan (CYP2C9, OATP1B1, OATP1B3, MRP2 substrate) pharmacokinetics; conditions: alisporivir 600 mg BID for 7 days; single oral 40 mg dose of valsartan
[18] = effect of alisporivir on circulating bilirubin concentrations in healthy subjects; conditions: 40 mg valsartan before and after alisporivir 600 mg BID 7 days then QD

T5 sequence (Q92887 whole entry): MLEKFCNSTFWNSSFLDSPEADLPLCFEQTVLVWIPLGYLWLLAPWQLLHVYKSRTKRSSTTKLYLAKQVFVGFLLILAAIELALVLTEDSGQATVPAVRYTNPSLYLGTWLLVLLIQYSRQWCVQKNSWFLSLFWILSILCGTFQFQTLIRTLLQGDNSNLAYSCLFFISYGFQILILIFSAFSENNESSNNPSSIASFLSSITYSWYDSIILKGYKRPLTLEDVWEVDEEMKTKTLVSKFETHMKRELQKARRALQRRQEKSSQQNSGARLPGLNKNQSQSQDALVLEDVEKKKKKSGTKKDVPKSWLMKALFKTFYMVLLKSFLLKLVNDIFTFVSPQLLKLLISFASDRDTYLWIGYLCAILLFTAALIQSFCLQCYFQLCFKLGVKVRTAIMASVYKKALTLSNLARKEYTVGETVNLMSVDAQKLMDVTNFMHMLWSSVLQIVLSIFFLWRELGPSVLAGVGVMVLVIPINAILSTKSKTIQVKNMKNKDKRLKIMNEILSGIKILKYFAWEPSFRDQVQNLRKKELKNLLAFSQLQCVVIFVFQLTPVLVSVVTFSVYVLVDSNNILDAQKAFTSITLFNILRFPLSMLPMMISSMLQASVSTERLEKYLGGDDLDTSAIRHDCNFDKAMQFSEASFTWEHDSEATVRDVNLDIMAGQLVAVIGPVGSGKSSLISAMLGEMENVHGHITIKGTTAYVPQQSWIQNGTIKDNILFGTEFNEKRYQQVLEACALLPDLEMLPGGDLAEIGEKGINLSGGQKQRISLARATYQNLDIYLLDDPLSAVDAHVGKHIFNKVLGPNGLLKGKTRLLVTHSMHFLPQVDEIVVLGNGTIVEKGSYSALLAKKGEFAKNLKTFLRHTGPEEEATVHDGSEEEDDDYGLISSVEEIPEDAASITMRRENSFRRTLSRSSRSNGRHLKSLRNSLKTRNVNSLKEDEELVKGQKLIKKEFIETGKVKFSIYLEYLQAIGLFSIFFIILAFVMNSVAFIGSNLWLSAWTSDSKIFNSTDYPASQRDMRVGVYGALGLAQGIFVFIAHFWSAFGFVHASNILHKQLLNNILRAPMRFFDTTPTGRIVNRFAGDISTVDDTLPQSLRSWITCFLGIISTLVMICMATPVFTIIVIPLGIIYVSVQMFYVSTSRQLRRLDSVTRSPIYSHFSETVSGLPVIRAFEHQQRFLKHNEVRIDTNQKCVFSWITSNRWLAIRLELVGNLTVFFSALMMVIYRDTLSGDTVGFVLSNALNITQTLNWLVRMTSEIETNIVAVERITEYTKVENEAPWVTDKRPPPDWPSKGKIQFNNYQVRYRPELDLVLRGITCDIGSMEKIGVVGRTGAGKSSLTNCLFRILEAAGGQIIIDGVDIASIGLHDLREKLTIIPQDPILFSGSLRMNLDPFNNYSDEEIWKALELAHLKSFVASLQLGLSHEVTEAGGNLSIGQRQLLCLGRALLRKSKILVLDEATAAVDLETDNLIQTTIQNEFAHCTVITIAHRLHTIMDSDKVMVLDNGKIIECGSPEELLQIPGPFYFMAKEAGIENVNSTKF
Chain of CYP3A4 (P08684 whole entry): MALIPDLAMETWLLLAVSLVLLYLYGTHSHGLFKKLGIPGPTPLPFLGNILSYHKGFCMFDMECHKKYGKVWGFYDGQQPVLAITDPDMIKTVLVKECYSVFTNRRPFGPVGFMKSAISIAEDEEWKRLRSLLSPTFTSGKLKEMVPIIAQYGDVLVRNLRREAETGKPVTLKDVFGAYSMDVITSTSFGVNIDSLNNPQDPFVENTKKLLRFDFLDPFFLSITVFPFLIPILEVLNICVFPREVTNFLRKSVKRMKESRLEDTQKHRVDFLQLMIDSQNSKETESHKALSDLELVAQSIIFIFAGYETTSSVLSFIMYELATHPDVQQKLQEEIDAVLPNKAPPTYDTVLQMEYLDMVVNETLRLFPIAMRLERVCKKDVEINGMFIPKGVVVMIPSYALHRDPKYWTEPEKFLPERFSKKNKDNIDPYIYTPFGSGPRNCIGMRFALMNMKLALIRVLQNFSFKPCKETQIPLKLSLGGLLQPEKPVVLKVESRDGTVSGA
Chain of P-gp (P08183 whole entry): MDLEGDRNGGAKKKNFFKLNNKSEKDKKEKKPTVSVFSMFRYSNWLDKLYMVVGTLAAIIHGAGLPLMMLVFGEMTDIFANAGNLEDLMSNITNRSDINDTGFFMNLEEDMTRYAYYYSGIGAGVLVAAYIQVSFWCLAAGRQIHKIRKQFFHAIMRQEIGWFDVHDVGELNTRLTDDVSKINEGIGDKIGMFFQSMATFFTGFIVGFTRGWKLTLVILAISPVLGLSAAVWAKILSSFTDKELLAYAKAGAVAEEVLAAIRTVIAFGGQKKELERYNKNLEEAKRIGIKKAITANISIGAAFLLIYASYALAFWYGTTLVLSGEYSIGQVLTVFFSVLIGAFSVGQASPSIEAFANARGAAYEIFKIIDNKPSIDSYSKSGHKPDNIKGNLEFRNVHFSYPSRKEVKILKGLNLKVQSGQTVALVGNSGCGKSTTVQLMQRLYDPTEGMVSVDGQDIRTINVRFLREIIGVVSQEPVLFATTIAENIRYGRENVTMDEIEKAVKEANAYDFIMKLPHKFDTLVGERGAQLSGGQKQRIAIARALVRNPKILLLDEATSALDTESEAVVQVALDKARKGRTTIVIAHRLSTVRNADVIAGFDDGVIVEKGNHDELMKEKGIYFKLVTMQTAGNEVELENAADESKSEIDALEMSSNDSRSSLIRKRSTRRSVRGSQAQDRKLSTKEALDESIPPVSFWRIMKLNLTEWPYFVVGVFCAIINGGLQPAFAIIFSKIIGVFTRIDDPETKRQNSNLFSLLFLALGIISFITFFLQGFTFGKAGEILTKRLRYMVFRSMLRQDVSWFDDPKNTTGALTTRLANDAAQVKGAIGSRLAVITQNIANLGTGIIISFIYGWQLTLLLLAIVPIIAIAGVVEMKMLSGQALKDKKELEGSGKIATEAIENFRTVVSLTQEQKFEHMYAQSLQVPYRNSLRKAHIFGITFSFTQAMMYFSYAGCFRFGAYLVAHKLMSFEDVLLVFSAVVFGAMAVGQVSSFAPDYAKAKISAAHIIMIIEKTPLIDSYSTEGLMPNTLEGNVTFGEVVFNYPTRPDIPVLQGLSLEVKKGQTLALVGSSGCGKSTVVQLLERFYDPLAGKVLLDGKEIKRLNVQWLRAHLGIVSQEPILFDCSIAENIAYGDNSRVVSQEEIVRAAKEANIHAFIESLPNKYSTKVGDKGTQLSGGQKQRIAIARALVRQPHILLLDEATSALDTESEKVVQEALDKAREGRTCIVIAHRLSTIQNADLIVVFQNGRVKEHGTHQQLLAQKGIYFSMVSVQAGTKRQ
Chain of BSEP (O95342 whole entry): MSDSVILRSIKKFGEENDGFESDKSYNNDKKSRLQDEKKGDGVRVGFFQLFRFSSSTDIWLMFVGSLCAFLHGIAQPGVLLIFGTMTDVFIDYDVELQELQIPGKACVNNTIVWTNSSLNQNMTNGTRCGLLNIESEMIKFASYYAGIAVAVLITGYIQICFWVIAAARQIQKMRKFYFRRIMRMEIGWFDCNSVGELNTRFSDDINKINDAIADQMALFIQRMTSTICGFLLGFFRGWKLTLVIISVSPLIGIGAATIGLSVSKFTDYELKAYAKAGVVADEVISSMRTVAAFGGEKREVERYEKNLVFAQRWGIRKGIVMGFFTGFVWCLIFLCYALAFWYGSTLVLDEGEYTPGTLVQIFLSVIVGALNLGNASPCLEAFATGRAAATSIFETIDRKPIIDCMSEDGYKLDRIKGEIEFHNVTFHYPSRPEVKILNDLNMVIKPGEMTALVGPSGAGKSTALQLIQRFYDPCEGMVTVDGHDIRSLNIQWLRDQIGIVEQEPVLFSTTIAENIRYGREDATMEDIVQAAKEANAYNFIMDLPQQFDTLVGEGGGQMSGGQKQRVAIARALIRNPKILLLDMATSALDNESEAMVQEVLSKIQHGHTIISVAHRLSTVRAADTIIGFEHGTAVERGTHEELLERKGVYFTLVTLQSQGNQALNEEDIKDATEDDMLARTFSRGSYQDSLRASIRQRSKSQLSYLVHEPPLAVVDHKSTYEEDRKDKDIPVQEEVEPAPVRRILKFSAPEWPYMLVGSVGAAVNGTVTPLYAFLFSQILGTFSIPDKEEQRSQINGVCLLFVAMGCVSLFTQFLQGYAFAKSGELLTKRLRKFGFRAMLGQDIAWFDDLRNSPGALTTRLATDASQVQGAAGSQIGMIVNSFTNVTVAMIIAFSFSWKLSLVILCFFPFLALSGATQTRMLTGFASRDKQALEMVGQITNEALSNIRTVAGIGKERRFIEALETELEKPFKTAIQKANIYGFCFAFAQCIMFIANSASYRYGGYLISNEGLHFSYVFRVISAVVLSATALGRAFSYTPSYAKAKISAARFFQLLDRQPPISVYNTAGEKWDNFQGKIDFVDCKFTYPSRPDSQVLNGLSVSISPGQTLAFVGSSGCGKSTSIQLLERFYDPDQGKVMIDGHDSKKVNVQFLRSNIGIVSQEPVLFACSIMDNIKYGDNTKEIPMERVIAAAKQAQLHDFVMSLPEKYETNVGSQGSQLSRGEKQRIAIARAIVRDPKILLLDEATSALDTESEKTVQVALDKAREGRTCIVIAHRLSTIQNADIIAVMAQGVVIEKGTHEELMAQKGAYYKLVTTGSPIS

SMILES: c1cnc(N2CCNCC2)nc1 [1-PP]
AUC increase (metabolite of buspirone) [1]: 12-15%

SMILES: C/C=C/C[C@@H](C)[C@@H](O)[C@H]1C(=O)N[C@@H](CC)C(=O)N(C)[C@H](C)C(=O)N(CC)[C@@H](C(C)C)C(=O)N[C@@H](C(C)C)C(=O)N(C)[C@@H](CC(C)C)C(=O)N[C@@H](C)C(=O)N[C@H](C)C(=O)N(C)[C@@H](CC(C)C)C(=O)N(C)[C@@H](CC(C)C)C(=O)N(C)[C@@H](C(C)C)C(=O)N1C [alisporivir]
inhibition of UGT2B7 (UGT2B7): does not inhibit
inhibition of OATP1B1 (OATP1B1 [2]): inhibitor
inhibition of OATP1B3 (OATP1B3 [3]): inhibitor
IC50 (OATP1B3 [4]): 700 nM
inducing effects on CYP isozymes (CYP isozymes): no inducing effects
IC50 (OATP1B1 [5]): 700 nM
inhibition of P-gp (P-gp): inhibitor
T1/2 when administered with boceprevir [6]: shorter
inhibition of UGT1A1 (UGT1A1): does not inhibit
inhibition of BSEP (BSEP): inhibitor
Ki (MRP2 [7]): 5.9 µM
inhibition of MRP2 (MRP2 [8]): inhibitor
inhibition of NTCP (NTCP): inhibitor
anti-HIV-1 potency relative to CsA (HIV-1): approximately 10 fold
inhibition of CYP3A4 (CYP3A4): time-dependent inhibitor of CYP3A4
T1/2 when administered with telaprevir [9]: shorter

SMILES: C[C@H]1O[C@@H](O[C@H]2[C@@H](O)C[C@H](O[C@H]3[C@@H](O)C[C@H](O[C@H]4CC[C@@]5(C)[C@H](CC[C@@H]6[C@@H]5C[C@@H](O)[C@]5(C)[C@@H](C7=CC(=O)OC7)CC[C@]65O)C4)O[C@@H]3C)O[C@@H]2C)C[C@H](O)[C@@H]1O [digoxin]
effect of alisporivir on renal clearance [12]: did not affect
increase in Cmax [12]: ~1.8 fold
increase in the AUC [12]: ~2.6 fold

SMILES: CN(C)CCC[C@@]1(c2ccc(F)cc2)OCc2cc(C#N)ccc21 [escitalopram]
T1/2 when administered with alisporivir [13]: similar

SMILES: CCC[C@H](NC(=O)[C@@H]1[C@H]2CCC[C@H]2CN1C(=O)[C@@H](NC(=O)[C@@H](NC(=O)c1cnccn1)C1CCCCC1)C(C)(C)C)C(=O)C(=O)NC1CC1 [telaprevir]
T1/2 when administered with alisporivir [16]: longer
increase in the Cmax [16]: ~2.4 fold

Further lines, results first:

increase in the AUC [10]: 32-39%
SMILES: CC[C@H]1OC(=O)[C@H](C)[C@@H](O[C@H]2C[C@@](C)(OC)[C@@H](O)[C@H](C)O2)[C@H](C)[C@@H](O[C@@H]2O[C@H](C)C[C@H](N(C)C)[C@H]2O)[C@](C)(O)C[C@@H](C)CN(C)[C@H](C)[C@@H](O)[C@]1(C)O [azithromycin]

T1/2 when administered with alisporivir [11]: similar
increase in the Cmax [11]: ~47%
SMILES: CC(C)(C)NC(=O)N[C@H](C(=O)N1C[C@H]2[C@@H]([C@H]1C(=O)NC(CC1CCC1)C(=O)C(N)=O)C2(C)C)C(C)(C)C (some centres unmarked) [boceprevir]

T1/2 when administered with alisporivir [14]: longer
SMILES: CC(C)n1c(/C=C/C(O)CC(O)CC(=O)O)c(-c2ccc(F)cc2)c2ccccc21 (centres unmarked) [fluvastatin]

increase in exposure (AUC) [15]: ~9 fold
increase in exposure (Cmax) [15]: approximately 7 fold
SMILES: CC(C)c1c(C(=O)Nc2ccccc2O)c(-c2ccccc2)c(-c2ccc(F)cc2)n1CCC(O)CC(O)CC(=O)O (centres unmarked) [o-OH-atorvastatin]

increase in Cmax [17]: approximately 2.3 fold
increase in the AUC [17]: ~6 fold
Valsartan exposure increased [18]: ~6 fold
SMILES: CCCCC(=O)N(Cc1ccc(-c2ccccc2-c2nnn[nH]2)cc1)[C@H](C(=O)O)C(C)C [valsartan]
